In ChEMBL document CHEMBL4725416, “Structure-Based Discovery of Novel Ligands for the Orexin 2 Receptor” (J Med Chem, 2020):
Active and inactive are the calls of the source. The rule behind the calls is not given here.

Columns and labels:
Assay type in all cases: cell-based
[1] = (§1) Displacement of [3H]-EMPA from human orexin 2 receptor expressed in CHO cells incubated for 2 hrs by whole cell radioligand binding assay; settings: for IC50: CHO
[2] = biological target: T1, Orexin/Hypocretin receptor type 1 (Homo sapiens, UniProt O43613); experiment: (§2) Displacement of [3H]-[…] from human orexin 1 receptor expressed in CHO cells incubated for 2 hrs by whole cell radioligand binding assay
T1 sequence (O43613 whole entry): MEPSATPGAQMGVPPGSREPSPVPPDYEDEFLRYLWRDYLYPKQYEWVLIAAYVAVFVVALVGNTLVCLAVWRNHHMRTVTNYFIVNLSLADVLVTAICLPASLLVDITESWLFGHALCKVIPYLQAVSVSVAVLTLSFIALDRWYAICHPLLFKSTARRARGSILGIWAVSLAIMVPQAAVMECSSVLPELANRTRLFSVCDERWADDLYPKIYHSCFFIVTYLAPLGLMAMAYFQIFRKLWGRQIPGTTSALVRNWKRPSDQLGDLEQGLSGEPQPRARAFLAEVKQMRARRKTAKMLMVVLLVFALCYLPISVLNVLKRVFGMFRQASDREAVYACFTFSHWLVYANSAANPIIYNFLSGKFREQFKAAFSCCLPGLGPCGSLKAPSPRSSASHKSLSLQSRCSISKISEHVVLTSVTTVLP

Homo sapiens = species on record: Homo sapiens; experiment: as §1
[3] = biological target: T2, Orexin/Hypocretin receptor type 1 (Homo sapiens) (UniProt O43613); experiment: as §2
T2 sequence (whole entry): T1 sequence (O43613 whole entry)

SMILES	IC50 [1]	IC50 [2]	further results
CN(CCc1cccc2ccccc12)C(=O)c1c[nH]c(=O)c(Cl)c1			pKi [1]: 4.89; Ki [2]: 14.8 µM
O=C1c2oc3ccc(Cl)cc3c(=O)c2[C@H](c2cccc([N+](=O)[O-])c2)N1Cc1ccccc1			pKi (Homo sapiens): inactive; pKi [3]: inactive
O=C(c1ccc(OCc2cn3ccccc3n2)cc1)N1CCC[C@@H]1c1ccc2c(c1)OCCO2	> 100 µM	> 100 µM	
Cc1ccc(-n2nccn2)c(C(=O)N2CCN(c3nc4cc(Cl)ccc4o3)CC[C@H]2C)c1 [SUVOREXANT]			pKi [1]: 8.53
O=C(CCCN1C(=O)c2cccc3cccc(c23)C1=O)Oc1ccc(F)cc1			pKi (Homo sapiens): inactive; pKi [3]: inactive
O=S(=O)(c1ccc(-c2noc(-c3ccco3)n2)cc1)N1CCCCC1			pKi (Homo sapiens): inactive; pKi [3]: inactive
O=C1c2ccc([N+](=O)[O-])cc2C(=O)N1c1cccc(-c2nc3ccccc3c(=O)o2)c1			pKi (Homo sapiens): inactive; pKi [3]: inactive
COc1cc(=O)n2c(c1C(=O)N(C)Cc1nonc1C)CCN(C(=O)C1(c3ccccc3)CC1)CC2	> 100 µM	> 100 µM	
C[C@@H]1CN(c2cccc(Cl)c2)C(=O)CN1C(=O)c1cccc2ccccc12	> 100 µM	> 100 µM	
O=C1c2ccccc2C(=O)N1CCc1nc(-c2cnccn2)no1	> 100 µM		
CCOC(=O)c1cc(C(=O)N[C@@H](C)c2ccccc2)c(C)[nH]c1=O			pKi (Homo sapiens): inactive; pKi [3]: inactive
O=C(CCCn1nnc2ccccc2c1=O)NCc1ccccn1			pKi (Homo sapiens): inactive; pKi [3]: inactive
C[C@H](NC(=O)[C@H]1CC(=O)N(c2ccc3c(c2)CCC3)C1)c1cccnc1			pKi (Homo sapiens): inactive; pKi [3]: inactive
COc1cccc(-c2nc(C(=O)OCc3cccnc3)c(C)[nH]2)c1			pKi [1]: 4.64; Ki [2]: 14.8 µM
Cc1nc(-c2ccc(Cl)c(S(=O)(=O)N3CCC[C@@H](C(=O)N4CCc5ccccc54)C3)c2)no1	> 100 µM	> 100 µM	
COc1cccc(COc2ccc(-c3noc(-c4ccco4)n3)cc2OC)c1			pKi (Homo sapiens): inactive; pKi [3]: inactive
N[C@H]1C[C@@H](C(=O)O)N(C(=O)c2ccccc2OCc2ccccc2)C1			pKi (Homo sapiens): inactive; pKi [3]: inactive
Cc1nc(C(=O)N2CCC[C@H]2Cc2nnc(-c3ccccc3)o2)c(-c2ccccc2F)s1			pKi [1]: 6.7; Ki [2]: 0.00389 µM
COc1cccc(CN2CC3(CCN(Cc4nccs4)CC3)CC2=O)c1	> 100 µM		
COc1ccc2cc(CN(C)C(=O)COC(=O)c3c(F)cccc3F)ccc2c1		> 100 µM	
CN(Cc1[nH]cc[n+]1C)C(=O)C[C@H]1CN(Cc2ccccc2)CCO1		> 100 µM	pKi (Homo sapiens): inactive

SMILES	IC50 [1]	IC50 [2]	further results
Cc1nc(-c2ncccn2)sc1C(=O)OCCn1c(C)nc2ccccc21	> 100 µM		
COc1ccc2c(c1)c(CC(=O)NCc1ccccn1)c(C)n2C(=O)c1ccc(Cl)cc1	> 5 µM	> 5 µM	
Cn1c(-c2ccccc2)c(C(=O)COC(=O)c2ccc3c(=O)n4c(nc3c2)CCC4)c2ccccc21		> 100 µM	pKi (Homo sapiens): inactive
Cc1nc(-c2cc(C)n(CC(=O)N3CCC[C@H]3c3ccncc3)c2C)cs1			pKi [3]: inactive
CCN(Cc1cccnc1)C(=O)CN(c1ccc(OC)nc1)S(=O)(=O)c1ccccc1C			pKi [1]: 8.17
Cc1nc(COc2ccc(C(=O)N3CCC[C@@H]3c3ccc4c(c3)OCCO4)cc2)cs1		> 100 µM	
O=C(c1ccccc1)[C@H]1CCCN(C(=O)CCc2nc(-c3ccco3)no2)C1		> 100 µM	
CN1C(=O)c2ccc(C(=O)OCCCn3c(=O)[nH]c4ccccc43)cc2C1=O	> 100 µM	> 100 µM	
Cc1ccc2c(C)c(C(=O)N3CCN(Cc4ccccn4)CC3)oc2c1C	> 100 µM	> 100 µM	
Cc1nc(/C=C/C(=O)Oc2ccc3c(=O)c(-c4c(F)cccc4Cl)c(C)oc3c2)cs1	> 100 µM	> 100 µM	
O=C(c1cc2c(s1)-c1ccccc1CC2)N1CCN(Cc2cc(=O)n3ccsc3n2)CC1	> 100 µM	> 100 µM	
O=C(CCC(=O)c1ccc2c(c1)OCCO2)Nc1cccc(C#Cc2ccccn2)c1	> 100 µM	> 100 µM	
O=S(=O)(c1ccc2c(c1)OCCO2)N1CCN(Cc2nc(-c3ccco3)cs2)CC1		> 100 µM	pKi (Homo sapiens): inactive
O=C(CCCn1nnc2ccccc2c1=O)NC1Cc2ccccc2C1		> 100 µM	pKi [1]: 4.4
O=C1Nc2cc(C(=O)N3CCN(Cc4ccc5c(c4)OCO5)CC3)ccc2N2CCCC[C@@H]12	> 100 µM	> 100 µM	
CN(Cc1[nH]cc[n+]1Cc1ccccc1)C(=O)c1cccc2cc[nH][n+]12	> 100 µM		
CN(C)S(=O)(=O)c1cccc(C(=O)N(CCc2ccccc2)c2nc3ccccc3s2)c1	> 100 µM		
O=C1N=C(O)/C(=C\c2ccccc2OCc2ccccc2F)C(=O)N1c1ccc2c(c1)OCO2		> 100 µM	
O=C1CCCN1c1cccc(C(=O)N(Cc2ccc(F)cc2)C2CC2)c1	> 100 µM		
Cc1ccc(C(=O)N2CCN(Cc3nnc(-c4ccco4)o3)CC2)cc1F	> 100 µM		
Cc1[nH]c2ccc(C(=O)N3CCN(Cc4ccc5c(c4)OCO5)CC3)cc2c1C	> 100 µM	> 100 µM	

SMILES	IC50 [1]	IC50 [2]	further results
CC1(C)OC[C@H](NC(=O)Nc2ccc(Br)cc2Br)[C@H](c2ccccc2)O1			pKi [1]: 8.18; Ki [2]: 1.35 µM
O=C(c1cnc(-c2ccccc2)s1)N1CCC[C@H]1c1ccncc1	> 100 µM	> 100 µM	
CC(=O)N1N=C(c2cn(C(C)=O)c3ccccc23)O[C@@H]1c1cccnc1	> 100 µM	> 100 µM	
O=C(Cc1ccc(Cl)cc1)N1CCC(c2noc(-c3ccccn3)n2)CC1	> 100 µM		
Cc1ccc(C(=O)[C@H](C)Oc2cccc(N3C(=O)C4C5C=CC(C5)C4C3=O)c2)cc1 (stereo partly drawn)	> 100 µM	> 100 µM	
Cc1cccc(C)c1NC(=O)CCCN1C(=O)c2cccnc2C1=O			pKi [1]: 4.56; Ki [2]: 33.9 µM
COc1cccc(-c2nc([C@@H]3CC(=O)N(Cc4ccccc4)C3)no2)c1	> 100 µM	> 100 µM	
Cc1cc([C@@H]2CCCCN2C(=O)c2ccc(-c3cc[nH]n3)cc2)no1	> 100 µM	> 100 µM	
c1ccc(-c2n[nH]cc2-c2nc3c(cnn3Cc3ccncc3)[nH]2)cc1			pKi [1]: 4.82; Ki [2]: 24.5 µM
CCC(=O)N1CCCN([C@@H](C)C(=O)Nc2ccccc2C(C)=O)CC1	> 100 µM		
Fc1ccccc1COc1cccc(CNCc2ccccn2)c1		> 100 µM	pKi [1]: 4.28
COc1cc(=O)n2c(c1C(=O)N(C)[C@H](C)c1ccco1)CCN(C(=O)C1(c3ccccc3)CC1)CC2	> 100 µM	> 100 µM	
Cc1ccc([C@H](CCO)n2cc(-c3ccnc4ccccc34)nn2)cc1	> 100 µM	> 100 µM	
O=C1/C(=C/c2ccc(N3CCOCC3)cc2)c2ccccc2N1c1ccccc1			Ki [2]: 17.8 µM
O=C(/C=C/c1cccc(F)c1)N1CCOc2c(cc(-c3cccnc3)cc2OC[C@H]2CCCCO2)C1	> 100 µM		
CN(Cc1[nH]cc[n+]1C)C(=O)CCCc1c[nH]c2ccccc12	> 100 µM		
O=S(=O)(c1cc(F)cc(F)c1)N1CCN(Cc2csc(-c3ccco3)n2)CC1	> 100 µM	> 100 µM	
O=C(c1cc(S(=O)(=O)N2CCOCC2)ccc1Cl)N1CCn2c1nc1ccccc12	> 100 µM	> 100 µM	
Cc1nn(-c2ccccc2)c(N2CCCC2)c1/C=N/n1cnc2c(cnn2-c2ccccc2)c1=O	> 100 µM	> 100 µM	
